Data from publication PMC9995905, “Characteristics of antimicrobial peptide OaBac5mini and its bactericidal mechanism against Escherichia coli” (Frontiers in Veterinary Science, 2023).
Converted amounts (≈) assume the structure as drawn.

How the values were obtained:
[1] = system: E. coli ATCC 25922; assay: microbe, parasite or virus in culture; details: for MIC: Escherichia coli, ATCC25922, read-out: MIC against E. coli ATCC 25922
Procedure: (§1) MICs of OaBac5mini, amoxicillin, kanamycin, florfenicol and tetracycline were determined using the two-fold broth microdilution method according to the Clinical and Laboratory Standards Institute (CLSI) guidance ([21]). MIC values of the tested antibacterial agents were determined on three independent occasions. Escherichia coli ATCC 25922 was used as the quality control in all the susceptibility tests.

[2] = system: S. aureus ATCC 25923; assay: microbe, parasite or virus in culture; details: for MIC: Staphylococcus aureus, ATCC25923, read-out: MIC against S. aureus ATCC 25923
Procedure: as §1

[3] = system: E. coli W13; assay: microbe, parasite or virus in culture; details: for MIC: Escherichia coli, W13, read-out: MIC against E. coli W13
Source text: (§2) The strains of E. coli ATCC 25922 and S. aureus ATCC 25923 were purchased from the American Type Culture Collection (ATCC, Manassas, VA, United States). The strains of E. coli W13, E. coli IF4, E. coli 2, and E. coli 17 were individually isolated from the livers of diseased chickens infected by E. coli. The strains of S. aureus B5, S. aureus B9, S. aureus B54, and S. aureus B63 were individually isolated from the milk of cows with mastitis. These clinical isolates were all identified by the VITEK-32 system (bioMérieux, France) and PCR amplification sequencing.
as §1

[4] = system: E. coli 17; assay: microbe, parasite or virus in culture; details: for MIC: Escherichia coli, 17, read-out: MIC against E. coli 17
Source text: as §2, §1

[5] = system: S. aureus B63; assay: microbe, parasite or virus in culture; details: for MIC: Staphylococcus aureus, B63, read-out: MIC against S. aureus B63
Source text: as §2, §1

[6] = system: S. aureus B54; assay: microbe, parasite or virus in culture; details: for MIC: Staphylococcus aureus, B54, read-out: MIC against S. aureus B54
Source text: as §2, §1

[7] = system: S. aureus B5; assay: microbe, parasite or virus in culture; details: for MIC: Staphylococcus aureus, B5, read-out: MIC against S. aureus B5
Source text: as §2, §1

[8] = system: E. coli IF4; assay: microbe, parasite or virus in culture; details: for MIC: Escherichia coli, IF4, read-out: MIC against E. coli IF4
Source text: as §2, §1

[9] = system: S. aureus B9; assay: microbe, parasite or virus in culture; details: for MIC: Staphylococcus aureus, B9, read-out: MIC against S. aureus B9
Source text: as §2, §1

[10] = system: E. coli 2; assay: microbe, parasite or virus in culture; details: for MIC: Escherichia coli, 2, read-out: MIC against E. coli 2
Source text: as §2, §1

[11] = system: E. coli ATCC 25922 ΔsbmA; details: two-fold broth microdilution, CLSI; three independent occasions; sbmA deletion mutant
Procedure: The method described by Datsenko and Wanner was used for chromosomal gene deletion ([20]). […] The PCR fragment (1,567 bp) was purified, digested with DpnI, repurified and transferred into E. coli ATCC 25922 by electroporation, in which the Red recombinase expression plasmid pKD46 was previously transformed and induced by L-arabinose. Transformants were selected on Luria-Bertani (LB) agar containing 50 μg/ml of kanamycin at 37°C. The inserted sequence was amplified from the kanamycin-resistant strains by using the primers SBMF: 5′-[…]-3′ and SBMR: 5′-[…]-3′ which is located outside of inactivated gene. The length of the PCR product of sbmA using the primers set SBMF and SBMR in E. coli ATCC 25922 is 1,404 bp. When sbmA is successfully inactivated, the PCR product (2,198 bp) was amplified and sequenced for the verification of the gene deletion.
as §1

[12] = two-fold broth microdilution, CLSI, three independent occasions
[13] = two-fold broth microdilution, CLSI, three independent occasions, isolate from diseased chicken liver
[14] = two-fold broth microdilution, CLSI, three independent occasions, isolate from milk of cows with mastitis

## CC1(C)S[C@@H]2[C@H](NC(=O)[C@H](N)c3ccc(O)cc3)C(=O)N2[C@H]1C(=O)O [AMO, amoxicillin]
[1]
  MIC: 8 µg/mL (≈ 21.9 µM)
[2]
  MIC: 0.67 µg/mL (≈ 1.83 µM)
[3]
  MIC: > 640 µg/mL
[4]
  MIC: > 640 µg/mL
[5]
  MIC: 2.08 µg/mL (≈ 5.69 µM)
[6]
  MIC: 3.33 µg/mL (≈ 9.11 µM)
[7]
  MIC: 427 µg/mL (≈ 1170 µM)
[8]
  MIC: > 640 µg/mL
[9]
  MIC: 3.33 µg/mL (≈ 9.11 µM)
[10]
  MIC: > 640 µg/mL
[11]
  MIC against E. coli ATCC 25922 ΔsbmA: 8 µg/mL (≈ 21.9 µM)

## CS(=O)(=O)c1ccc([C@@H](O)[C@@H](CF)NC(=O)C(Cl)Cl)cc1 [FLO, florfenicol]
[1]
  MIC: 4 µg/mL (≈ 11.2 µM)
[2]
  MIC: 16 µg/mL (≈ 44.7 µM)
[3]
  MIC: 320 µg/mL (≈ 893 µM)
[4]
  MIC: 80 µg/mL (≈ 223 µM)
[5]
  MIC: 1.04 µg/mL (≈ 2.9 µM)
[6]
  MIC: 2.5 µg/mL (≈ 6.98 µM)
[7]
  MIC: 4.17 µg/mL (≈ 11.6 µM)
[8]
  MIC: 80 µg/mL (≈ 223 µM)
[9]
  MIC: 1.67 µg/mL (≈ 4.66 µM)
[10]
  MIC: 267 µg/mL (≈ 744 µM)
[11]
  MIC against E. coli ATCC 25922 ΔsbmA: 5.3 µg/mL (≈ 14.8 µM)

## NC[C@H]1O[C@H](O[C@H]2[C@H](O)[C@@H](O[C@H]3O[C@H](CO)[C@@H](O)[C@H](N)[C@H]3O)[C@H](N)C[C@@H]2N)[C@H](O)[C@@H](O)[C@@H]1O [KAN, kanamycin]
[1]; [12]
  MIC against E. coli ATCC 25922: 4 µg/mL (≈ 8.26 µM)
[2]; [12]
  MIC against S. aureus ATCC 25923: 4 µg/mL (≈ 8.26 µM)
[3]; [13]
  MIC against E. coli W13: 320 µg/mL (≈ 660 µM)
[4]; [13]
  MIC against E. coli 17: 320 µg/mL (≈ 660 µM)
[5]; [14]
  MIC against S. aureus B63: 1.25 µg/mL (≈ 2.58 µM)
[6]; [14]
  MIC against S. aureus B54: 5.83 µg/mL (≈ 12 µM)
[7]; [14]
  MIC against S. aureus B5: 40 µg/mL (≈ 82.6 µM)
[8]; [13]
  MIC against E. coli IF4: >640 µg/mL
[9]; [14]
  MIC against S. aureus B9: 186.67 µg/mL (≈ 385 µM)
[10]; [13]
  MIC against E. coli 2: >640 µg/mL

## CN(C)[C@@H]1C(O)=C(C(N)=O)C(=O)[C@@]2(O)C(O)=C3C(=O)c4c(O)cccc4[C@@](C)(O)[C@H]3C[C@@H]12 [TET, tetracycline]
[1]
  MIC: 2 µg/mL (≈ 4.5 µM)
[2]
  MIC: 1 µg/mL (≈ 2.25 µM)
[3]
  MIC: 160 µg/mL (≈ 360 µM)
[4]
  MIC: 160 µg/mL (≈ 360 µM)
[5]
  MIC: 0.42 µg/mL (≈ 0.945 µM)
[6]
  MIC: 66.7 µg/mL (≈ 150 µM)
[7]
  MIC: 0.08 µg/mL (≈ 0.18 µM)
[8]
  MIC: 133 µg/mL (≈ 300 µM)
[9]
  MIC: 80 µg/mL (≈ 180 µM)
[10]
  MIC: 1 µg/mL (≈ 2.25 µM)
[11]
  MIC against E. coli ATCC 25922 ΔsbmA: 1.67 µg/mL (≈ 3.76 µM)
